# Source: the supplement of paper PMC12490022
# ± gives the uncertainty stated by the source.
# System: ozone
# Experiment: apparent second-order rate constant for reaction with ozone (kapp,O3) (M-1 s-1); higher = faster oxidation by ozone
# Settings: pH 7; temperature: 22 C; OH radical scavenger: tBuOH 80 mM; phosphate 4 mM
# Method in brief: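 The apparent second-order rate constant for reaction with ozone is a mean (± SD) from multicompound competition kinetics across qualifying competitors. Mixtures of target and competitors, each at 10 μg L–1 before ozone addition, were prepared in 4 mM phosphate buffer at pH 7 with 80 mM tert-butanol and dosed with ozone solution at compound:O3 molar ratios of 0.0025–100 and 22 ± 1 °C, in triplicate on three days. HPLC-HRMS/MS peak-area abatement in the 10–90% range was regressed against competitors of known constant, and a competitor qualified only with ≥10 points, R2 >0.9 and a slope of 0.1–10.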
row,apparent second-order rate constant,Compound
1,2990 ± 260,Cc1cccc(Nc2ccncc2S(=O)(=O)NC(=O)NC(C)C)c1 [Torasemide]
2,4.8e+06 ± 300000,CC(CN1c2ccccc2CCc2ccccc21)C[N+](C)(C)[O-] (stereo not given) [Trimipramine-N-oxide]
3,2e+06 ± 400000,CC(CN(C)C)CN1c2ccccc2CCc2ccccc21 (stereo not given) [Trimipramine]
4,64000 ± 14000,COc1ccc(CCN(C)CCCC(C#N)(c2ccc(OC)c(OC)c2)C(C)C)cc1OC (stereo not given) [Verapamil]
5,1.8e+08 ± 4e+07,CC(C)c1c(C(=O)Nc2ccccc2O)c(-c2ccccc2)c(-c2ccc(F)cc2)n1CCC(O)CC(O)CC(=O)O (stereo not given) [ortho-Hydroxyatorvastatin]
6,6.6e+07 ± 1.4e+07,CC(C)c1c(C(=O)Nc2ccc(O)cc2)c(-c2ccccc2)c(-c2ccc(F)cc2)n1CCC(O)CC(O)CC(=O)O (stereo not given) [para-Hydroxyatorvastatin]

# The remaining lines, values behind:
row,Compound,apparent second-order rate constant
1,Cn1cnc2c1c(=O)[nH]c(=O)n2C [Theobromine],1200 ± 65
2,Cn1c(=O)c2[nH]cnc2n(C)c1=O [Theophylline],885000 ± 78000
3,Cc1ccc(C(=O)C(C)CN2CCCCC2)cc1 (stereo not given) [Tolperisone],17400 ± 1700
4,CC(C)NC(=O)NS(=O)(=O)c1cnccc1Nc1cccc(C(=O)O)c1 [Torasemide carboxylic acid],214 ± 10
5,O=c1n(CCCN2CCN(c3cccc(Cl)c3)CC2)nc2ccccn12 [Trazodone],1.31e+07 ± 1.6e+06
6,COc1ccc(C(C[N+](C)(C)[O-])C2(O)CCCCC2)cc1 (stereo not given) [Venlafaxine-N-oxide],168 ± 8.7
7,COc1ccc(C(CN(C)C)C2(O)CCCCC2)cc1 (stereo not given) [Venlafaxine],3440 ± 260
8,Cc1ccc2nc(-c3ccc(C(=O)O)cc3)c(CC(=O)N(C)C)n2c1 [Zolpidem carboxylic acid],6.3e+06 ± 400000
9,Cc1ccc(-c2nc3ccc(C)cn3c2CC(=O)N(C)C)cc1 [Zolpidem],1.28e+07 ± 900000
